Results taken from BindingDB's records for doi:10.1016/s0960-894x(99)00336-4 (Merck Research Laboratories, 1999).

Assay: Inhibitory activity against Calcineurin (CaN phosphatase)

Row | Structure (SMILES) | IC50 [nM]
1 | CC[C@@H]1/C=C(\C)C[C@H](C)C[C@H](OC)[C@H]2O[C@@](O)(C(=O)C(=O)N3CCCC[C@H]3C(=O)O[C@H](/C(C)=C/C3CC[C@@H](OC[C@@H](O)c4ccc(F)c(F)c4)[C@H](OC)C3)[C@H](C)[C@H](O)CC1=O)[C@H](C)C[C@@H]2OC (stereo partly specified) [12-(2-{4-[2-(3,4-Difluoro-phenyl)-2-hydroxy-ethoxy]-3-methoxy-cyclohexyl}-1-methyl-vinyl)-17-ethyl-1,14-dihydroxy-23,25-dimethoxy-13,19,21,27-tetramethyl-11,28-dioxa-4-aza-tricyclo[22.3.1.0*4,9*]octacos-18-ene-2,3,10,16-tetraone] | 7.3
2 | CC[C@@H]1/C=C(\C)C[C@H](C)C[C@H](OC)[C@H]2O[C@@](O)(C(=O)C(=O)N3CCCC[C@H]3C(=O)O[C@H](/C(C)=C/C3CC[C@@H](OC[C@H](O)c4ccc(F)c(F)c4)[C@H](OC)C3)[C@H](C)[C@H](O)CC1=O)[C@H](C)C[C@@H]2OC (stereo partly specified) [12-(2-{4-[2-(3,4-Difluoro-phenyl)-2-hydroxy-ethoxy]-3-methoxy-cyclohexyl}-1-methyl-vinyl)-17-ethyl-1,14-dihydroxy-23,25-dimethoxy-13,19,21,27-tetramethyl-11,28-dioxa-4-aza-tricyclo[22.3.1.0*4,9*]octacos-18-ene-2,3,10,16-tetraone] | 8.7
3 | CC[C@@H]1/C=C(\C)C[C@H](C)C[C@H](OC)[C@H]2O[C@@](O)(C(=O)C(=O)N3CCCC[C@H]3C(=O)O[C@H](/C(C)=C/C3CC[C@@H](OC[C@@H](O)c4cc(C)cc(C)c4)[C@H](OC)C3)[C@H](C)[C@H](O)CC1=O)[C@H](C)C[C@@H]2OC (stereo partly specified) [12-(2-{4-[2-(3,5-Dimethyl-phenyl)-2-hydroxy-ethoxy]-3-methoxy-cyclohexyl}-1-methyl-vinyl)-17-ethyl-1,14-dihydroxy-23,25-dimethoxy-13,19,21,27-tetramethyl-11,28-dioxa-4-aza-tricyclo[22.3.1.0*4,9*]octacos-18-ene-2,3,10,16-tetraone] | 7.9
4 | CC[C@@H]1/C=C(\C)C[C@H](C)C[C@H](OC)[C@H]2O[C@@](O)(C(=O)C(=O)N3CCCC[C@H]3C(=O)O[C@H](/C(C)=C/C3CC[C@@H](OC[C@H](O)c4cc(C)cc(C)c4)[C@H](OC)C3)[C@H](C)[C@H](O)CC1=O)[C@H](C)C[C@@H]2OC (stereo partly specified) [12-(2-{4-[2-(3,5-Dimethyl-phenyl)-2-hydroxy-ethoxy]-3-methoxy-cyclohexyl}-1-methyl-vinyl)-17-ethyl-1,14-dihydroxy-23,25-dimethoxy-13,19,21,27-tetramethyl-11,28-dioxa-4-aza-tricyclo[22.3.1.0*4,9*]octacos-18-ene-2,3,10,16-tetraone] | 8.7
5 | CC[C@@H]1/C=C(\C)C[C@H](C)C[C@H](OC)[C@H]2O[C@@](O)(C(=O)C(=O)N3CCCC[C@H]3C(=O)O[C@H](/C(C)=C/C3CC[C@@H](OC[C@@H](O)c4cc5ccccc5s4)[C@H](OC)C3)[C@H](C)[C@H](O)CC1=O)[C@H](C)C[C@@H]2OC (stereo partly specified) [12-{2-[4-(2-Benzo[b]thiophen-2-yl-2-hydroxy-ethoxy)-3-methoxy-cyclohexyl]-1-methyl-vinyl}-17-ethyl-1,14-dihydroxy-23,25-dimethoxy-13,19,21,27-tetramethyl-11,28-dioxa-4-aza-tricyclo[22.3.1.0*4,9*]octacos-18-ene-2,3,10,16-tetraone] | 4
6 | CC[C@@H]1/C=C(\C)C[C@H](C)C[C@H](OC)[C@H]2O[C@@](O)(C(=O)C(=O)N3CCCC[C@H]3C(=O)O[C@H](/C(C)=C/C3CC[C@@H](OC[C@H](O)c4cc5ccccc5s4)[C@H](OC)C3)[C@H](C)[C@H](O)CC1=O)[C@H](C)C[C@@H]2OC (stereo partly specified) [12-{2-[4-(2-Benzo[b]thiophen-2-yl-2-hydroxy-ethoxy)-3-methoxy-cyclohexyl]-1-methyl-vinyl}-17-ethyl-1,14-dihydroxy-23,25-dimethoxy-13,19,21,27-tetramethyl-11,28-dioxa-4-aza-tricyclo[22.3.1.0*4,9*]octacos-18-ene-2,3,10,16-tetraone] | 4.2
7 | CC[C@@H]1/C=C(\C)C[C@H](C)C[C@H](OC)[C@H]2O[C@@](O)(C(=O)C(=O)N3CCCC[C@H]3C(=O)O[C@H](/C(C)=C/C3CC[C@@H](OC[C@@H](O)c4cccc(C(F)(F)F)c4)[C@H](OC)C3)[C@H](C)[C@H](O)CC1=O)[C@H](C)C[C@@H]2OC (stereo partly specified) [17-Ethyl-1,14-dihydroxy-12-(2-{4-[2-hydroxy-2-(3-trifluoromethyl-phenyl)-ethoxy]-3-methoxy-cyclohexyl}-1-methyl-vinyl)-23,25-dimethoxy-13,19,21,27-tetramethyl-11,28-dioxa-4-aza-tricyclo[22.3.1.0*4,9*]octacos-18-ene-2,3,10,16-tetraone] | 4.9
8 | CC[C@@H]1/C=C(\C)C[C@H](C)C[C@H](OC)[C@H]2O[C@@](O)(C(=O)C(=O)N3CCCC[C@H]3C(=O)O[C@H](/C(C)=C/C3CC[C@@H](OC[C@H](O)c4cccc(C(F)(F)F)c4)[C@H](OC)C3)[C@H](C)[C@H](O)CC1=O)[C@H](C)C[C@@H]2OC (stereo partly specified) [17-Ethyl-1,14-dihydroxy-12-(2-{4-[2-hydroxy-2-(3-trifluoromethyl-phenyl)-ethoxy]-3-methoxy-cyclohexyl}-1-methyl-vinyl)-23,25-dimethoxy-13,19,21,27-tetramethyl-11,28-dioxa-4-aza-tricyclo[22.3.1.0*4,9*]octacos-18-ene-2,3,10,16-tetraone] | 5.9
9 | CC[C@@H]1/C=C(\C)C[C@H](C)C[C@H](OC)[C@H]2O[C@@](O)(C(=O)C(=O)N3CCCC[C@H]3C(=O)O[C@H](/C(C)=C/C3CC[C@@H](OC[C@@H](O)c4ccc5ccccc5c4)[C@H](OC)C3)[C@H](C)[C@H](O)CC1=O)[C@H](C)C[C@@H]2OC (stereo partly specified) [17-Ethyl-1,14-dihydroxy-12-{2-[4-(2-hydroxy-2-naphthalen-2-yl-ethoxy)-3-methoxy-cyclohexyl]-1-methyl-vinyl}-23,25-dimethoxy-13,19,21,27-tetramethyl-11,28-dioxa-4-aza-tricyclo[22.3.1.0*4,9*]octacos-18-ene-2,3,10,16-tetraone] | 2.8
10 | CC[C@@H]1/C=C(\C)C[C@H](C)C[C@H](OC)[C@H]2O[C@@](O)(C(=O)C(=O)N3CCCC[C@H]3C(=O)O[C@H](/C(C)=C/C3CC[C@@H](OC[C@H](O)c4ccc5ccccc5c4)[C@H](OC)C3)[C@H](C)[C@H](O)CC1=O)[C@H](C)C[C@@H]2OC (stereo partly specified) [17-Ethyl-1,14-dihydroxy-12-{2-[4-(2-hydroxy-2-naphthalen-2-yl-ethoxy)-3-methoxy-cyclohexyl]-1-methyl-vinyl}-23,25-dimethoxy-13,19,21,27-tetramethyl-11,28-dioxa-4-aza-tricyclo[22.3.1.0*4,9*]octacos-18-ene-2,3,10,16-tetraone] | 7.3
11 | C=CC[C@@H]1/C=C(\C)C[C@H](C)C[C@H](OC)[C@H]2O[C@@](O)(C(=O)C(=O)N3CCCC[C@H]3C(=O)O[C@H](/C(C)=C/[C@@H]3CC[C@@H](O)[C@H](OC)C3)[C@H](C)[C@@H](O)CC1=O)[C@H](C)C[C@@H]2OC [(E)-(1R,9S,12S,13R,14R,21S,23S,24R,25S,27R)-17-Allyl-1,14-dihydroxy-12-[(E)-2-((3R,4R)-4-hydroxy-3-methoxy-cyclohexyl)-1-methyl-vinyl]-23,25-dimethoxy-13,19,21,27-tetramethyl-11,28-dioxa-4-aza-tricyclo[22.3.1.0*4,9*]octacos-18-ene-2,3,10,16-tetraone] | 15
